Measured values: ChEMBL document CHEMBL4376886, “Design, Synthesis, and Evaluation of Novel Enterovirus 71 Inhibitors as Therapeutic Drug Leads for the Treatment of Human Hand, Foot, and Mouth Disease” (J Med Chem, 2020)

Experiments:
[1] = rat, in vivo, ip, 5 mg/kg, 24 h
Description: AUC (0 to t) in Sprague-Dawley rat at 5 mg/kg, ip administered as single dose measured upto 24 hrs by LC-MS/MS analysis

[2] = Subacute toxicity in PND14 Sprague-Dawley rat assessed as lens fiber loosening and vacuolar degeneration at 100 mg/kg/day, po administered via gavage for 14 days and measured at day 28 by hematoxylin and eosin staining based histopathological analysis; format: organism-based; conditions: in vivo, 336 h
[3] = Apparent clearance during terminal phase in Sprague-Dawley rat at 5 mg/kg, po administered as single dose measured upto 24 hrs by LC-MS/MS analysis; format: ADME, organism-based; conditions: in vivo, read-out: CLz/F (converted)
[4] = Oral bioavailability in Sprague-Dawley rat at 5 mg/kg administered as single dose measured upto 24 hrs by LC-MS/MS analysis; format: ADME, organism-based; conditions: in vivo
[5] = Subacute toxicity in PND14 Sprague-Dawley rat assessed as hair loss at 100 mg/kg/day, po administered via gavage for 14 days and measured for 28 days; format: organism-based; conditions: in vivo, 672 h
[6] = in vivo; conditions: Sprague-Dawley, rat, ip, 5 mg/kg
Description: Tmax in Sprague-Dawley rat at 5 mg/kg, ip administered as single dose measured upto 24 hrs by LC-MS/MS analysis

[7] = in vivo; conditions: zebrafish
Description: Acute toxicity in juvenile zebrafish assessed as fatality rate at 150 uM after 48 hrs

[8] = Metabolic stability in Sprague-Dawley rat liver microsomes assessed as intrinsic clearance measured upto 300 mins in presence of NADP+ by HPLC analysis
[9] = Acute toxicity in juvenile zebrafish assessed as fatality rate at 100 uM after 24 hrs; conditions: in vivo
[10] = in vivo; conditions: zebrafish; remark: listed apart in the source
Description: Acute toxicity in juvenile zebrafish assessed as fatality rate at 150 uM after 24 hrs

[11] = in vivo; conditions: Sprague-Dawley, rat, ip, 5 mg/kg; remark: listed apart in the source
Description: Cmax in Sprague-Dawley rat at 5 mg/kg, ip administered as single dose measured upto 24 hrs by LC-MS/MS analysis

[12] = Apparent clearance during terminal phase in Sprague-Dawley rat at 1 mg/kg, iv administered as single dose measured upto 24 hrs by LC-MS/MS analysis; format: ADME, organism-based; conditions: in vivo
[13] = AUC (0 to t) in Sprague-Dawley rat at 5 mg/kg, po administered as single dose measured upto 24 hrs by LC-MS/MS analysis; format: ADME, organism-based; conditions: in vivo
[14] = Cmax in Sprague-Dawley rat at 1 mg/kg, iv administered as single dose measured upto 24 hrs by LC-MS/MS analysis; format: ADME, organism-based; design: dose 1 mg/kg, route intravenous; conditions: in vivo
[15] = Acute toxicity in juvenile zebrafish assessed as fatality rate at 200 uM after 48 hrs; conditions: in vivo
[16] = Subacute toxicity in PND7 Sprague-Dawley rat assessed as irreversible opaqueness of lens at 30 to 50 mg/kg/day, po administered via gavage for 14 days and measured for 28 days; format: organism-based; conditions: in vivo, 672 h
[17] = Subacute toxicity in PND4 Sprague-Dawley rat assessed as animal survival at 30 to 50 mg/kg/day, po administered via gavage for 14 days and measured for 28 days; format: organism-based; conditions: in vivo
[18] = in vivo; conditions: Sprague-Dawley, rat, ip, 5 mg/kg; remark: listed apart in the source
Description: Apparent half-life of the terminal disposition phase in Sprague-Dawley rat at 5 mg/kg, ip administered as single dose measured upto 24 hrs by LC-MS/MS analysis

[19] = Subacute toxicity in PND14 Sprague-Dawley rat assessed as quadriplegia at 100 mg/kg/day, po administered via gavage for 14 days and measured for 28 days; format: organism-based; conditions: in vivo, 672 h
[20] = Subacute toxicity in PND14 Sprague-Dawley rat assessed as development of opaque lens at 100 mg/kg/day, po administered via gavage for 14 days and measured for 28 days; format: organism-based; conditions: in vivo, 672 h
[21] = Acute toxicity in juvenile zebrafish assessed as fatality rate at 50 uM after 24 hrs; conditions: in vivo
[22] = Subacute toxicity in PND21 Sprague-Dawley rat assessed as hair loss at 100 mg/kg/day, po administered via gavage for 14 days and measured for 28 days; format: organism-based; conditions: in vivo, 672 h
[23] = Acute toxicity in juvenile zebrafish assessed as fatality rate at 20 uM after 24 hrs; conditions: in vivo
[24] = Subacute toxicity in PND4 Sprague-Dawley rat assessed as irreversible opaqueness of lens at 30 to 50 mg/kg/day, po administered via gavage for 14 days and measured for 28 days; format: organism-based; conditions: in vivo, 672 h
[25] = AUC (0 to t) in Sprague-Dawley rat at 1 mg/kg, iv administered as single dose measured upto 24 hrs by LC-MS/MS analysis; format: ADME, organism-based; conditions: in vivo
[26] = Acute toxicity in juvenile zebrafish assessed as fatality rate at 50 uM after 48 hrs; conditions: in vivo
[27] = Tmax in Sprague-Dawley rat at 5 mg/kg, po administered as single dose measured upto 24 hrs by LC-MS/MS analysis; format: ADME, organism-based; conditions: in vivo
[28] = Acute toxicity in juvenile zebrafish assessed as fatality rate at 20 uM after 48 hrs; conditions: in vivo
[29] = Subacute toxicity in PND21 Sprague-Dawley rat assessed as quadriplegia at 100 mg/kg/day, po administered via gavage for 14 days and measured for 28 days; format: organism-based; conditions: in vivo, 672 h
[30] = Apparent half-life of the terminal disposition phase in Sprague-Dawley rat at 1 mg/kg, iv administered as single dose measured upto 24 hrs by LC-MS/MS analysis; format: ADME, organism-based; conditions: in vivo, read-out: t1/2 lambda z (converted)
[31] = Apparent half-life of the terminal disposition phase in Sprague-Dawley rat at 5 mg/kg, po administered as single dose measured upto 24 hrs by LC-MS/MS analysis; format: ADME, organism-based; conditions: in vivo, read-out: t1/2 lambda z (converted)
[32] = in vivo; conditions: Sprague-Dawley, rat, ip, 5 mg/kg; remark: listed apart in the source
Description: Apparent clearance during terminal phase in Sprague-Dawley rat at 5 mg/kg, ip administered as single dose measured upto 24 hrs by LC-MS/MS analysis

[33] = Subacute toxicity in PND21 Sprague-Dawley rat assessed as development of opaque lens at 100 mg/kg/day, po administered via gavage for 14 days and measured for 28 days; format: organism-based; conditions: in vivo, 672 h
[34] = tested on: Enterovirus A71; assay: Antiviral activity against Enterovirus 71 genotype C4 infected in BALB/c mouse assessed as protection rate at 10 mg/kg/day, ip qd for 7 days administration starting from 48 hrs post-infection and measured for 14 days; format: functional
[35] = Acute toxicity in juvenile zebrafish assessed as fatality rate at 200 uM after 24 hrs; conditions: in vivo
[36] = Inhibition of capsid protein VP1 in Enterovirus 71 (FY)-Luc infected in human RD cells assessed as reduction in virus-induced cell death preincubated for 24 hrs followed by […] substrate addition and measured after 5 mins by chemiluminescence analysis; format: cell-based, Enterovirus A71; conditions: Enterovirus A
[37] = Acute toxicity in juvenile zebrafish assessed as fatality rate at 100 uM after 48 hrs; conditions: in vivo
[38] = Cmax in Sprague-Dawley rat at 5 mg/kg, po administered as single dose measured upto 24 hrs by LC-MS/MS analysis; format: ADME, organism-based; design: dose 5 mg/kg, route oral; conditions: in vivo
[39] = Bioavailability in Sprague-Dawley rat at 5 mg/kg, ip administered as single dose measured upto 24 hrs by LC-MS/MS analysis; conditions: in vivo
[40] = Subacute toxicity in PND7 Sprague-Dawley rat assessed as animal survival at 30 to 50 mg/kg/day, po administered via gavage for 14 days and measured for 28 days; format: organism-based; conditions: in vivo
[41] = Cytotoxicity against human RD cells assessed as reduction in cell viability incubated for 24 hrs by MTT assay; conditions: rd

CCO/N=C/c1ccc(OCCC(C)CCN2CCN(c3ccnc(N)c3)C2=O)cc1 (stereo unspecified)
AUCt [1]: 258 ng·h/mL | Activity [2]: Toxic | CL/F [3]: 1600 mL/min/kg | bioavailability [4]: 73.3% | Activity [5]: Toxic | Tmax at 24 h [6]: 0.5 h | mortality at 48 h, 150 µM [7]: 100% | microsomal CLint at 5 h [8]: 38.9 µL/min/mg | mortality at 24 h, 100 µM [9]: 100% | mortality at 24 h, 150 µM [10]: 100% | Cmax at 24 h [11]: 149 ng/mL | CLz/F [12]: 13.2 mL/min/kg | AUCt [13]: 222 ng·h/mL | Cmax [14]: 23.3 ng/mL | mortality at 48 h, 200 µM [15]: 100% | Activity [16]: Toxic | survival at 672 h [17]: 100% | half-life at 24 h [18]: 2.64 h | Activity [19]: Toxic | Activity [20]: Toxic | mortality at 24 h, 50 µM [21]: 100% | Activity [22]: Toxic | mortality at 24 h, 20 µM [23]: 100% | Activity [24]: Toxic | AUCt [25]: 60.8 ng·h/mL | mortality at 48 h, 50 µM [26]: 100% | Tmax [27]: 1 h | mortality at 48 h, 20 µM [28]: 100% | Activity [29]: Toxic | half-life [30]: 0.5 h | half-life [31]: 2.99 h | CL/F at 24 h [32]: 381 mL/min/kg | Activity [33]: Toxic | Activity [34]: 100% | mortality at 24 h, 200 µM [35]: 100% | EC50 [36]: 0.025 nM | mortality at 48 h, 100 µM [37]: 100% | Cmax [38]: 81.8 ng/mL | bioavailability at 24 h [39]: 85% | survival at 672 h [40]: 100% | CC50 at 24 h [41]: 29.4 µM
